In ChEMBL document CHEMBL1201862, “PubChem BioAssay data set” (2004):
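Protocol summary: plate cells (96-well), add compound at 5 concentrations, incubate 48 h, interpolate endpoints linearly. GI50 = concentration required for 50% inhibition of growth.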 Calls of active or inactive are those of the source. Rule as the data show it: active = GI50 up to about 1.1 µM and inactive = higher.

Assays:
Test in all cases: NCI-60 cell line screen, 48 h
[1] = test system: DU-145
[2] = test system: MDA-MB-231
[3] = test system: 786-0
[4] = test system: RPMI-8226
[5] = test system: SF-539
[6] = test system: NCI/ADR-RES
[7] = test system: SNB-75
[8] = test system: HCC 2998
[9] = test system: PC-3
[10] = test system: SF-295
[11] = test system: OVCAR-5
[12] = test system: SW-620
[13] = test system: K562
[14] = test system: NCI-H460
[15] = test system: UACC-257
[16] = test system: Hs-578T
[17] = test system: UACC-62
[18] = test system: MOLT-4
[19] = test system: IGROV-1
[20] = test system: NCI-H522

Measured: GI50

O=C1CC(c2ccc(Cl)cc2)C2(C(=O)NC(=S)NC2=O)C(c2ccc(Cl)cc2)C1 (configuration not stated)
inactive: [1] 37.2 µM | [2] 20.2 µM | [3] 36.5 µM | [4] 20.6 µM | [5] 20 µM | [6] 20.8 µM | [7] 15.1 µM | [8] 25.8 µM | [9] 20.1 µM | [10] 17.6 µM | [11] 19.6 µM | [12] 21.5 µM | [13] 30.5 µM | [14] 14.9 µM | [15] 18.5 µM | [16] 30 µM | [17] 16.1 µM | [18] 25.5 µM

CN(C)C1(N(C)C)Oc2c(c(=O)n(C)c(=O)n2C)C(c2ccc(C(F)(F)F)cc2)C1(F)F (configuration not stated)
inactive: [1] > 100 µM | [2] > 100 µM | [3] > 100 µM | [4] > 100 µM | [6] > 100 µM | [7] > 100 µM | [8] > 100 µM | [9] > 100 µM | [10] > 100 µM | [11] > 100 µM | [12] > 100 µM | [13] > 100 µM | [14] > 100 µM | [15] > 100 µM | [17] > 100 µM

N#CC(C(=O)c1ccccc1F)c1nc2cc(C(F)(F)F)ccc2s1 (configuration not stated)
inactive: [1] 28.3 µM | [2] 31 µM | [3] 19.6 µM | [4] 22 µM | [5] 33.4 µM | [6] 19.7 µM | [7] 14.6 µM | [10] 14.3 µM | [11] 21.2 µM | [19] 36.3 µM | [12] 30.6 µM | [20] 17.3 µM | [14] 30.1 µM | [15] 27.4 µM | [18] 31.1 µM

COc1cccc([C@@H]2C/C(=N\NC(=O)C(=O)N[C@@H](C)c3ccccc3)c3cc4c(cc3N2)OCO4)c1
inactive: [1] > 100 µM | [2] 67.5 µM | [3] 82 µM | [4] 30.5 µM | [5] 23.8 µM | [6] 13.9 µM | [7] 22.5 µM | [8] 50.9 µM | [9] 98.6 µM | [10] 36.6 µM | [11] > 100 µM | [12] 16 µM | [13] 13.2 µM | [15] 15.8 µM | [16] 19.7 µM | [17] 17.1 µM | [18] 21 µM

CC(C)(C)OC(=O)N[C@@H](Cc1ccccc1)C(=O)N1CC[C@@H](C(=O)N2[C@H]3CC4CC[C@@]3(CS2(=O)=O)C4(C)C)N1
inactive: [1] 79.6 µM | [2] 48 µM | [3] > 100 µM | [4] 82.6 µM | [6] 62.5 µM | [7] 39.9 µM | [8] 79.3 µM | [9] 45.7 µM | [11] > 100 µM | [12] 62.8 µM | [13] > 100 µM | [14] 39.4 µM | [15] > 100 µM | [16] 46.8 µM | [17] 52.4 µM | [18] > 100 µM

COc1cc(/C=C2/SC(c3ccccc3)N(c3cc(Cl)ccc3Cl)C2=O)cc(OC)c1OC (configuration not stated)
inactive: [1] > 100 µM | [2] > 100 µM | [3] > 100 µM | [4] 23.8 µM | [6] 64.4 µM | [7] 45.1 µM | [8] > 100 µM | [9] 65.5 µM | [10] 47.1 µM | [11] > 100 µM | [19] 44.9 µM | [12] 49.9 µM | [13] 59 µM | [20] 47.1 µM | [14] > 100 µM | [15] > 100 µM | [17] 44.2 µM | [18] > 100 µM

N=C(NCc1ccccc1)N/N=C\c1ccnc2ccccc12
inactive: [1] 16.5 µM | [2] 13.9 µM | [3] 13.7 µM | [4] 1.29 µM | [5] 15.7 µM | [6] 15.8 µM | [7] 8.04 µM | [8] 2.1 µM | [9] 15.6 µM | [10] 15.3 µM | [11] 13.4 µM | [12] 14.8 µM | [13] 4.31 µM | [14] 13.9 µM | [15] 2.35 µM | [16] 18.8 µM | [17] 15.1 µM | [18] 12.6 µM

CCOC(=O)/C(=C\NCc1ccc2c(c1)OCO2)c1nc2ccccc2[nH]1
inactive: [1] > 100 µM | [3] 36.9 µM | [4] 25.5 µM | [5] 35.4 µM | [6] 60.3 µM | [7] 77.3 µM | [8] 42.7 µM | [9] 50 µM | [10] 53.5 µM | [11] 94.8 µM | [19] 40.3 µM | [12] 98.2 µM | [13] 52.2 µM | [20] 28.2 µM | [14] 24.9 µM | [15] 64.6 µM | [16] 56.8 µM | [17] 26.9 µM | [18] 30.5 µM

O=[N+]([O-])c1ccc(Cl)c2c([N+](=O)[O-])cccc12
inactive: [3] 3.14 µM | [4] 5.52 µM | [5] 3.06 µM | [7] 5.38 µM | [8] > 10 µM | [9] 7.85 µM | [10] > 10 µM | [19] 8.02 µM | [12] 2.91 µM | [13] 4.02 µM | [17] 5.46 µM | [18] 4.9 µM

CC1C2=C(O)CC(C)(C)CC2=NC2=C1C(=O)CC(C)(C)C2 (configuration not stated)
inactive: [3] > 100 µM | [4] > 100 µM | [5] > 100 µM | [6] > 100 µM | [7] 83 µM | [8] > 100 µM | [9] > 100 µM | [11] > 100 µM | [19] > 100 µM | [12] > 100 µM | [13] 91.8 µM | [14] > 100 µM | [16] > 100 µM | [17] > 100 µM | [18] > 100 µM

CCOC(=O)CSc1[nH]c2nc(C)nc(Cl)c2c1C#N
inactive: [1] > 10 µM | [2] > 10 µM | [3] > 10 µM | [4] > 10 µM | [7] > 10 µM | [8] > 10 µM | [9] > 10 µM | [10] > 10 µM | [19] > 10 µM | [12] > 10 µM | [13] > 10 µM | [15] > 10 µM | [17] > 10 µM | [18] > 10 µM

Cc1ccc2c(c1)NC(c1ccc(C(=O)O)cc1)c1cccn1-2 (configuration not stated)
inactive: [1] 26 µM | [2] 37.2 µM | [3] 19.3 µM | [4] > 100 µM | [5] > 100 µM | [7] 18.7 µM | [9] 32.7 µM | [10] 37.8 µM | [11] > 100 µM | [12] > 100 µM | [13] > 100 µM | [14] 66.5 µM | [15] 80.4 µM | [17] 42.8 µM | [18] 64.1 µM
